Experimental data from US20230104936A1, “TRPML MODULATORS” (Casma Therapeutics, Inc., priority 2019, published 2023).

Test system: TFEB
Test: TFEB nuclear translocation assay, HeLa wt cells
Assay type: cell-based
Details: 2 hrs compound treatment, Table 1 does not say HeLa wt or TRPML1 KO
Experimental: For the TFEB nuclear translocation assay, HeLa wt or HeLa TRPML1 KO cells were plated at 2700 cells/well into black-walled, 384-well Cell carrier Ultra tissue culture treated plates in complete media and incubated overnight. The next day, cells are treated for 2 hrs with compounds and incubated at 37° C. Cells were then fixed for 30 minutes at room temperature in 4% final PFA and washed five times with 90 μL PBS. PBS is aspirated from the wells and the cells are blocked with 7.5 μL blocking buffer (1:1 PBS/Odyssey block buffer containing 0.1% triton x-100 and 1% goat serum). After 30-60 minutes of block, 7.5 μL of primary anti-TFEB (rabbit) antibody is added for a final dilution of 1:200 antibody in 15 μL blocking buffer. Plates are incubated overnight at 4° C. The following day, plates are washed again into PBS, 90 μL with 5 washes, all PBS is aspirated from the wells and the cells are incubated for 1 hr in 1:1000 goat-anti rabbit Alexa 488 secondary antibody, also containing 10 μg/mL Hoechst 33342. After the 1 hr room temperature incubation, plates are washed a final time into PBS, sealed with foil and imaged with an automated epifluorescence microscopy (PerkinElmer Operetta CLS). Four different fields were imaged per well using ×20 magnification for DAPI and FITC filter sets. Images were quantified using PerkinElmer Harmony software, briefly: apply flatfield correction (basic/advanced) for input images. Use the Find Nuclei building block with channel set at Hoechst to find the nuclei. Use the Find cytoplasm building block with channel set to Alexa 488 to find the cytoplasm. Use select cell region with Channel set at Alexa 488 and region of interest as Nuclei and define outer border at 0 μm and inner at 45 μm to cover complete nuclei. Use select cell region with Channel set at Alexa 488 and region of interest as ring region and define outer border at −5 μm and inner at 0 μm to define a ring around the nucleus. Use the find calculate intensity parameter to calculate intensity of the nuclear region and the ring region. Define results as Number of nuclei and ratio of A/B where A is Intensity of Nuclei and B is intensity of the ring region.
The compound numbers correspond to the compound numbers above in Tables A or B. Compounds having an activity designated as “++++” provided an AC50 of ≤2.00 μM; compounds having an activity designated as “+++” provided an AC50 of 2.01-8.00 μM; compounds having an activity designated as “++” provided an AC50 of 8.01-9.99 μM; and compounds having an activity designated as “+” provided an AC50 of ≥10.00 μM.

`CC(c1cccc(F)c1N1CCCCC1)S(=O)(=O)c1ccc2c(c1)CCS2(=N)=O` (single isomer, unassigned) [Compound A-960] and `CC(c1cccc(F)c1N1CCOCC1)S(=O)(=O)c1ccc2c(c1)CCS2(=O)=O` (single isomer, unassigned) [Compound A-967, 5-((1-(3-fluoro-2-morpholinophenyl)ethyl)sulfonyl)-2,3-dihydrobenzo[b]thiophene 1,1-dioxide] cannot be ordered by AC50: no less than 10 µM for the first, no less than 10 µM for the second.

Compared with `CC(c1cccc(F)c1N1CCC(COC(C)(C)C)CC1)S(=O)(=O)c1ccc(S(=N)(=O)N(C)C)cc1` (single isomer, unassigned) [Compound A-961, 4-((1-(2-(4-(tert-butoxymethyl)piperidin-1-yl)-3-fluorophenyl)ethyl)sulfonyl)-N,N-dimethylbenzenesulfonimidamide], `CC(c1cccc(F)c1N1CCC(COC(C)(C)C)CC1)S(=O)(=O)c1ccc(C(F)F)cc1` (single isomer, unassigned) [Compound A-977, 4-(tert-butoxymethyl)-1-(2-(1-((4-(difluoromethyl)phenyl)sulfonyl)ethyl)-6-fluorophenyl)piperidine] is lower in AC50: no less than 10 µM for the first, 2.01 to 8 µM for the second.

`CC(c1cccc(F)c1N1CCC(COC(C)(C)C)CC1)S(=O)(=O)c1ccc(S(=N)(=O)N(C)C)cc1` (single isomer, unassigned) [Compound A-962, 4-((1-(2-(4-(tert-butoxymethyl)piperidin-1-yl)-3-fluorophenyl)ethyl)sulfonyl)-N,N-dimethylbenzenesulfonimidamide] and `CC(c1cccc(F)c1N1CCC(C)(C(F)F)CC1)S(=O)(=O)c1ccc(S(=N)(=O)N(C)C)cc1` (single isomer, unassigned) [Compound A-974, 4-((1-(2-(4-(difluoromethyl)-4-methylpiperidin-1-yl)-3-fluorophenyl)ethyl)sulfonyl)-N,N-dimethylbenzenesulfonimidamide] cannot be ordered by AC50: no more than 2 µM for the first, no more than 2 µM for the second.

Going from `CC(c1cccc(F)c1N1CCC(C)(C(F)F)CC1)S(=O)(=O)c1ccc(C(F)F)cc1` (single isomer, unassigned) [Compound A-964, 4-(difluoromethyl)-1-(2-(1-((4-(difluoromethyl)phenyl)sulfonyl)ethyl)-6-fluorophenyl)-4-methylpiperidine] to `CC(c1cccc(F)c1N1CCC(C)(C(F)F)CC1)S(=O)(=O)c1ccc(S(=N)(=O)N(C)C)cc1` (single isomer, unassigned) [Compound A-975, 4-((1-(2-(4-(difluoromethyl)-4-methylpiperidin-1-yl)-3-fluorophenyl)ethyl)sulfonyl)-N,N-dimethylbenzenesulfonimidamide], the AC50 rises from no more than 2 µM to no less than 10 µM.

First: Cc1ccc(S(=O)(=O)C(C)c2cccc(F)c2N2CCC(CN3C4CCC3COC4)CC2)cc1 (single isomer, unassigned) [Compound A-965, 8-((1-(2-fluoro-6-(1-tosylethyl)phenyl)piperidin-4-yl)methyl)-3-oxa-8-azabicyclo[3.2.1]octane]
Second: CC(c1cccc(F)c1N1[C@@H]2CCC[C@H]1CC2)S(=O)(=O)c1ccc(S(=N)(=O)N(C)C)cc1 (single isomer, unassigned) [Compound A-989, 4-((1-(2-(8-azabicyclo[3.2.1]octan-8-yl)-3-fluorophenyl)ethyl)sulfonyl)-N,N-dimethylbenzenesulfonimidamide]
The AC50 of the first is higher: no less than 10 µM for the first, 8.01 to 9.99 µM for the second.

Compared with `CC(c1cc(Cl)cnc1N1CCC(CN2CCC(F)(F)CC2)CC1)S(=O)(=O)c1ccc(S(=O)(=O)N(C)C)cc1` (single isomer, unassigned) [Compound A-979, 4-((1-(5-chloro-2-(4-((4,4-difluoropiperidin-1-yl)methyl)piperidin-1-yl)pyridin-3-yl)ethyl)sulfonyl)-N,N-dimethylbenzenesulfonamide], `Cc1cnc(N2CCC(CN3CCC(F)(F)CC3)CC2)c(C(C)S(=O)(=O)c2ccc(S(=O)(=O)N(C)C)cc2)c1` (single isomer, unassigned) [Compound A-990, 4-((1-(2-(4-((4,4-difluoropiperidin-1-yl)methyl)piperidin-1-yl)-5-methylpyridin-3-yl)ethyl)sulfonyl)-N,N-dimethylbenzenesulfonamide] is lower in AC50: 2.01 to 8 µM for the first, no more than 2 µM for the second.

Going from `CC(c1cccc(F)c1N1CCCCC1)S(=O)(=O)c1ccc(S2(=O)=NCCC2)cc1` (single isomer, unassigned) [Compound A-980, 1-(4-((1-(3-fluoro-2-(piperidin-1-yl)phenyl)ethyl)sulfonyl)phenyl)-4,5-dihydro-3H-isothiazole 1-oxide] to `CN(C)S(=O)(=O)c1ccc(S(=O)(=O)C(c2cccc(F)c2N2CCCCC2)C2CC2)cc1` (single isomer, unassigned) [Compound A-983, 4-((cyclopropyl(3-fluoro-2-(piperidin-1-yl)phenyl)methyl)sulfonyl)-N,N-dimethylbenzenesulfonamide], the AC50 falls from no less than 10 µM to no more than 2 µM.

`CC(c1cccc(F)c1N1CCCCC1)S(=O)(=O)c1ccc(S2(=O)=NCCC2)cc1` (single isomer, unassigned) [Compound A-981, 1-(4-((1-(3-fluoro-2-(piperidin-1-yl)phenyl)ethyl)sulfonyl)phenyl)-4,5-dihydro-3H-isothiazole 1-oxide] gave an AC50 of no less than 10 µM.
In the case of `CC(c1cccc(F)c1N1CCCCC1)S(=O)(=O)c1ccc(S2(=O)=NCCC2)cc1` (single isomer, unassigned) [Compound A-991, 1-(4-((1-(3-fluoro-2-(piperidin-1-yl)phenyl)ethyl)sulfonyl)phenyl)-4,5-dihydro-3H-isothiazole 1-oxide], the AC50 is reported as 2.01 to 8 µM.
`CC(c1cccc(F)c1N1CCCCC1)S(=O)(=O)c1ccc(S2(=O)=NCCC2)cc1` (single isomer, unassigned) [Compound A-992, 1-(4-((1-(3-fluoro-2-(piperidin-1-yl)phenyl)ethyl)sulfonyl)phenyl)-4,5-dihydro-3H-isothiazole 1-oxide] showed an AC50 of no less than 10 µM.

Same assay, conditions: Homo sapiens, HeLa, 2 h, 2 hrs compound treatment, Table 1 does not say HeLa wt or TRPML1 KO

Compared with `CC(c1cccc(F)c1N1CCC(C)(C(F)F)CC1)S(=O)(=O)c1ccc(C(F)F)cc1` (single isomer, unassigned) [Compound A-963, 4-(difluoromethyl)-1-(2-(1-((4-(difluoromethyl)phenyl)sulfonyl)ethyl)-6-fluorophenyl)-4-methylpiperidine], `CC(c1cccc(F)c1N1CCC(COC(C)(C)C)CC1)S(=O)(=O)c1ccc(C(F)F)cc1` (single isomer, unassigned) [Compound A-976, 4-(tert-butoxymethyl)-1-(2-(1-((4-(difluoromethyl)phenyl)sulfonyl)ethyl)-6-fluorophenyl)piperidine] is lower in AC50: 2.01 to 8 µM for the first, no more than 2 µM for the second.

First: CC(c1cccc(F)c1N1CCOCC1)S(=O)(=O)c1ccc2c(c1)CCS2(=O)=O (single isomer, unassigned) [Compound A-966, 5-((1-(3-fluoro-2-morpholinophenyl)ethyl)sulfonyl)-2,3-dihydrobenzo[b]thiophene 1,1-dioxide]
Second: CN(C)S(=O)(=O)c1ccc(S(=O)(=O)C(c2cccc(F)c2N2CCCCC2)C2CC2)cc1 (single isomer, unassigned) [Compound A-982, 4-((cyclopropyl(3-fluoro-2-(piperidin-1-yl)phenyl)methyl)sulfonyl)-N,N-dimethylbenzenesulfonamide]
The AC50 of the first is higher: no less than 10 µM for the first, no more than 2 µM for the second.

`CC(c1cc(Cl)cnc1N1CCC(CN2CCC(F)(F)CC2)CC1)S(=O)(=O)c1ccc(S(=O)(=O)N(C)C)cc1` (single isomer, unassigned) [Compound A-978, 4-((1-(5-chloro-2-(4-((4,4-difluoropiperidin-1-yl)methyl)piperidin-1-yl)pyridin-3-yl)ethyl)sulfonyl)-N,N-dimethylbenzenesulfonamide] and `CC(c1cc(Cl)cnc1N1CCC(CN2CCC(F)(F)CC2)CC1)S(=O)(=O)c1ccc2c(c1)CCC2` (single isomer, unassigned) [Compound A-993, 5-chloro-2-(4-((4,4-difluoropiperidin-1-yl)methyl)piperidin-1-yl)-3-(1-((2,3-dihydro-1H-inden-5-yl)sulfonyl)ethyl)pyridine] cannot be ordered by AC50: no more than 2 µM for the first, no more than 2 µM for the second.

Work on `CC(c1cccc(F)c1N1[C@@H]2CCC[C@H]1CC2)S(=O)(=O)c1ccc(S(=N)(=O)N(C)C)cc1` (single isomer, unassigned) [Compound A-988, 4-((1-(2-(8-azabicyclo[3.2.1]octan-8-yl)-3-fluorophenyl)ethyl)sulfonyl)-N,N-dimethylbenzenesulfonimidamide] yielded an AC50 of no less than 10 µM.
